Laboratory results: PubChem BioAssay AID2060354 (Molecular Pharmacology Branch, DTP, NCI, 2025)
pIC50: −log10 of the molar value. Several values for one entry are separate records, joined by “and”; a condition that tells them apart may be missing. Equal values may be shown once.

Tested on: 519858-162-T-J1-PDC spheroid growth inhibition
Experiment: Anticancer human tumor 519858-162-T-J1-PDC patient-derived colon adenocarcinoma cell line growth inhibition [TAK]
Conditions: spheroids with HUVEC and MSC; for viability, T/C: stronger effect = lower value
Method in brief: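 Tumor cells were grown as spheroids with HUVEC and hMSC (60:25:15) and treated with targeted agents combined with TAK-243 or ipatasertib. Drugs were tested in half-log steps down from near the clinical Cmax, or from 10 microM where Cmax was unknown.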

[1] = curve of first compound, second compound 0.3 µM
[2] = curve of first compound, second compound 0.949 µM
[3] = curve of first compound, second compound 3 µM
[4] = curve of first compound, second compound 9.49 µM
[5] = curve of first compound, second compound 30 µM
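Further: spheroids exposed to drugs for 7 days.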

Q: Which results are given for `Cn1cnc2c(F)c(Nc3ccc(Br)cc3Cl)c(C(=O)NOCCO)cc21` + CC(C)NCC(C(=O)N1CCN(c2ncnc3c2C(C)CC3O)CC1)c1ccc(Cl)cc1?
A: pIC50 [1]: 7.11; pIC50 [2]: 7.16; pIC50 [3]: 7.02; pIC50 [4]: 6.86; pIC50 [5]: 6.79; viability, T/C (second compound 0.3 µM, first compound 0.00949 µM): 80.3%; viability, T/C (second compound 0.3 µM, first compound 0.03 µM): 62.7%; viability, T/C (second compound 0.3 µM, first compound 0.0949 µM): 49%; viability, T/C (second compound 0.3 µM, first compound 0.3 µM): 30.5%; viability, T/C (second compound 0.3 µM, first compound 0.949 µM): 17%; viability, T/C (second compound 0.3 µM, first compound 3 µM): 14%; viability, T/C (second compound 0.949 µM, first compound 0.00949 µM): 88.5%; viability, T/C (second compound 0.949 µM, first compound 0.03 µM): 64%; viability, T/C (second compound 0.949 µM, first compound 0.0949 µM): 44.1%; viability, T/C (second compound 0.949 µM, first compound 0.3 µM): 32.8%; viability, T/C (second compound 0.949 µM, first compound 0.949 µM): 15.7%; viability, T/C (second compound 0.949 µM, first compound 3 µM): 16.8%; viability, T/C (second compound 3 µM, first compound 0.00949 µM): 73.8%; viability, T/C (second compound 3 µM, first compound 0.03 µM): 66.9%; viability, T/C (second compound 3 µM, first compound 0.0949 µM): 50.1%; viability, T/C (second compound 3 µM, first compound 0.3 µM): 30.7%; viability, T/C (second compound 3 µM, first compound 0.949 µM): 24.6%; viability, T/C (second compound 3 µM, first compound 3 µM): 15.5%; viability, T/C (second compound 9.49 µM, first compound 0.00949 µM): 84.2%; viability, T/C (second compound 9.49 µM, first compound 0.03 µM): 85.3%; viability, T/C (second compound 9.49 µM, first compound 0.0949 µM): 53.8%; viability, T/C (second compound 9.49 µM, first compound 0.3 µM): 36.2%; viability, T/C (second compound 9.49 µM, first compound 0.949 µM): 23.4%; viability, T/C (second compound 9.49 µM, first compound 3 µM): 17%; viability, T/C (second compound 30 µM, first compound 0.00949 µM): 101%; viability, T/C (second compound 30 µM, first compound 0.03 µM): 79%; viability, T/C (second compound 30 µM, first compound 0.0949 µM): 68.7%; viability, T/C (second compound 30 µM, first compound 0.3 µM): 32.2%; viability, T/C (second compound 30 µM, first compound 0.949 µM): 21%; viability, T/C (second compound 30 µM, first compound 3 µM): 21.4%

Q: Which results are given for `CC(C)n1nc(-c2ccc3oc(N)nc3c2)c2c(N)ncnc21`?
A: viability, T/C (compound 0.001 µM): 104% and 100%; viability, T/C (compound 0.00316 µM): 94.8% and 95.9%; viability, T/C (compound 0.01 µM): 112% and 97.5%; viability, T/C (compound 0.0316 µM): 78.9% and 93.1%; viability, T/C (compound 0.1 µM): 74.1% and 61.6%; pIC50 (curve of compound): < 7.00

Q: What does the source list for `CC(C)CC(NC(=O)C(Cc1ccccc1)NC(=O)c1cnccn1)B(O)O` (stereo not drawn)?
A: viability, T/C (compound 31.6 pM): 90.9% and 107%; viability, T/C (compound 0.0001 µM): 97.5% and 90.8%; viability, T/C (compound 0.000316 µM): 91% and 116%; viability, T/C (compound 0.001 µM): 88.1% and 106%; viability, T/C (compound 0.00316 µM): 89.5% and 109%; viability, T/C (compound 0.01 µM): 73.2% and 71.1%; pIC50 (curve of compound): < 8.00

Q: Which results are given for `Cc1nc(NC(=O)N2CCCC2C(N)=O)sc1-c1ccnc(C(C)(C)C(F)(F)F)c1` (stereo not drawn) + CC(C)NCC(C(=O)N1CCN(c2ncnc3c2C(C)CC3O)CC1)c1ccc(Cl)cc1?
A: pIC50 [1]: < 5.00; pIC50 [2]: < 5.00; pIC50 [3]: < 5.00; pIC50 [4]: < 5.00; pIC50 [5]: < 5.00; viability, T/C (second compound 0.3 µM, first compound 0.0316 µM): 110%; viability, T/C (second compound 0.3 µM, first compound 0.1 µM): 88.2%; viability, T/C (second compound 0.3 µM, first compound 0.316 µM): 81%; viability, T/C (second compound 0.3 µM, first compound 1 µM): 81.7%; viability, T/C (second compound 0.3 µM, first compound 3.16 µM): 68.5%; viability, T/C (second compound 0.3 µM, first compound 10 µM): 52.8%; viability, T/C (second compound 0.949 µM, first compound 0.0316 µM): 85.3%; viability, T/C (second compound 0.949 µM, first compound 0.1 µM): 94.8%; viability, T/C (second compound 0.949 µM, first compound 0.316 µM): 104%; viability, T/C (second compound 0.949 µM, first compound 1 µM): 79.9%; viability, T/C (second compound 0.949 µM, first compound 3.16 µM): 86.9%; viability, T/C (second compound 0.949 µM, first compound 10 µM): 66.2%; viability, T/C (second compound 3 µM, first compound 0.0316 µM): 80%; viability, T/C (second compound 3 µM, first compound 0.1 µM): 77.5%; viability, T/C (second compound 3 µM, first compound 0.316 µM): 76.9%; viability, T/C (second compound 3 µM, first compound 1 µM): 75.1%; viability, T/C (second compound 3 µM, first compound 3.16 µM): 80.5%; viability, T/C (second compound 3 µM, first compound 10 µM): 65.7%; viability, T/C (second compound 9.49 µM, first compound 0.0316 µM): 85.6%; viability, T/C (second compound 9.49 µM, first compound 0.1 µM): 74.2%; viability, T/C (second compound 9.49 µM, first compound 0.316 µM): 81.4%; viability, T/C (second compound 9.49 µM, first compound 1 µM): 74.4%; viability, T/C (second compound 9.49 µM, first compound 3.16 µM): 71.2%; viability, T/C (second compound 9.49 µM, first compound 10 µM): 62.7%; viability, T/C (second compound 30 µM, first compound 0.0316 µM): 94.6%; viability, T/C (second compound 30 µM, first compound 0.1 µM): 82%; viability, T/C (second compound 30 µM, first compound 0.316 µM): 91.5%; viability, T/C (second compound 30 µM, first compound 1 µM): 80.2%; viability, T/C (second compound 30 µM, first compound 3.16 µM): 72.4%; viability, T/C (second compound 30 µM, first compound 10 µM): 72.2%
